According to ChEMBL document CHEMBL5360622, “Leucettinibs, a Class of DYRK/CLK Kinase Inhibitors Inspired by the Marine Sponge Natural Product Leucettamine B” (J Med Chem, 2023):

Key:
[1] = target: T1, Dual specificity tyrosine-phosphorylation-regulated kinase 4 (Homo sapiens, UniProt Q9NR20)
T1 sequence (Q9NR20 whole entry): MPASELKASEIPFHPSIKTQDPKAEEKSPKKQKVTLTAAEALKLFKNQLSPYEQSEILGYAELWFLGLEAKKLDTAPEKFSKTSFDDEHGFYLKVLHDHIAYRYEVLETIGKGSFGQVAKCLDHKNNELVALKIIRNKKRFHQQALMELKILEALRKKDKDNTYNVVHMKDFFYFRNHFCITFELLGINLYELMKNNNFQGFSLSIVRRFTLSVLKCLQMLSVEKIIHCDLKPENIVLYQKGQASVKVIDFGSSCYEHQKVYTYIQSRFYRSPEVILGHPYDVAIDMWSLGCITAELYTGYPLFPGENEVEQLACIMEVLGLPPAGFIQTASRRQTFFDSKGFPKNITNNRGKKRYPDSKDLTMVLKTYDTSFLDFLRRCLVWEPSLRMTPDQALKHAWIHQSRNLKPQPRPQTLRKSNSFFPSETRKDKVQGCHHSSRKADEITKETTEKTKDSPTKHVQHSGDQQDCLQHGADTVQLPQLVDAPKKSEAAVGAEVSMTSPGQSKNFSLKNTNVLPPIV

[2] = target: Dual specificity protein kinase CLK4 (Homo sapiens, UniProt Q9HAZ1)
Chain of Dual specificity protein kinase CLK4 (Q9HAZ1 whole entry): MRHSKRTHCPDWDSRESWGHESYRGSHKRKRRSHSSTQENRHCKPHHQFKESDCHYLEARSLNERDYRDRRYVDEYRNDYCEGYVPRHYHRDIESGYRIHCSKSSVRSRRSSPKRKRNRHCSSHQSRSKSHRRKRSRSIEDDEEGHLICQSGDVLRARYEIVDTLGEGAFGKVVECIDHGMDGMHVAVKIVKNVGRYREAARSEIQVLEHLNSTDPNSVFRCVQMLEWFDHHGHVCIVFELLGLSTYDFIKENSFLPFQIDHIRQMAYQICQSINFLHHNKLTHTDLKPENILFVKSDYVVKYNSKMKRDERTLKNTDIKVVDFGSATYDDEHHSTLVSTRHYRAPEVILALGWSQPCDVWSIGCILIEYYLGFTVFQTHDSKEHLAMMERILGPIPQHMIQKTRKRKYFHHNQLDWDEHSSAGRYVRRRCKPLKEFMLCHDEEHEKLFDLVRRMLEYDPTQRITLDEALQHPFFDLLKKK

[3] = target: Dual specificity tyrosine-phosphorylation-regulated kinase 1A (Homo sapiens, UniProt Q13627)
[4] = target: Glycogen synthase kinase-3 beta (Homo sapiens, UniProt P49841); format: cell-based, Sf9
Chain of Glycogen synthase kinase-3 beta (P49841 whole entry): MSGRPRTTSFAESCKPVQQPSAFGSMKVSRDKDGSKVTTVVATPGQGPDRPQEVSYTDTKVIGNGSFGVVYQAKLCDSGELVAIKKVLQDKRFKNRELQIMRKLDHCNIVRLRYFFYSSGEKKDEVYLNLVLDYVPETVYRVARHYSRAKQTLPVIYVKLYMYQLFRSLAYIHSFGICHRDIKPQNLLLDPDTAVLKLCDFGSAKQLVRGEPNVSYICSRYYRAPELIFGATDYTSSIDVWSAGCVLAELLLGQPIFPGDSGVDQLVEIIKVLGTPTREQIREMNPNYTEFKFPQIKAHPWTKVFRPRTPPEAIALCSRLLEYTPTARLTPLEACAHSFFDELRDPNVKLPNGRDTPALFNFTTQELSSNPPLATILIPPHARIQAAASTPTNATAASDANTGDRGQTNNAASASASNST

[5] = target: Cyclin-dependent kinase 5/CDK5 activator 1 (Homo sapiens, UniProt Q00535); format: cell-based, Sf9
Chain of Cyclin-dependent kinase 5/CDK5 activator 1 (Q00535 whole entry): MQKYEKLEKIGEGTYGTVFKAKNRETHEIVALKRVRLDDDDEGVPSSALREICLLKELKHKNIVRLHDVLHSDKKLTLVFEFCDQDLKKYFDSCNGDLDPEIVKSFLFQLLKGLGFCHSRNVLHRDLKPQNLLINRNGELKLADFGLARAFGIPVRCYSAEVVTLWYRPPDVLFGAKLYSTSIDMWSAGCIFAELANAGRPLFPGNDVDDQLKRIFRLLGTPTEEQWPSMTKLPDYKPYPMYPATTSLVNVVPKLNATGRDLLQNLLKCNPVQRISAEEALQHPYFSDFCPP
Chain of Cyclin-dependent kinase 5/CDK5 activator 1 (Q15078 whole entry, further chain): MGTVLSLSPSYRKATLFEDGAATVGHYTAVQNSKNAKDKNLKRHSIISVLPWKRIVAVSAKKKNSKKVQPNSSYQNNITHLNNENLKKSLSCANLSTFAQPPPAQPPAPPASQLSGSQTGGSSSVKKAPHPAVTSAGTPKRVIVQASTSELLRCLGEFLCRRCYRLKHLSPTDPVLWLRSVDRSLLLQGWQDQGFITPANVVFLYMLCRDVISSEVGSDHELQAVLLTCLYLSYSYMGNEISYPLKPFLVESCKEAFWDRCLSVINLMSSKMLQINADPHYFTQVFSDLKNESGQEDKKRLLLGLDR

[6] = target: Dual specificity protein kinase CLK2 (Homo sapiens, UniProt P49760)
Chain of Dual specificity protein kinase CLK2 (P49760 whole entry, canonical isoform): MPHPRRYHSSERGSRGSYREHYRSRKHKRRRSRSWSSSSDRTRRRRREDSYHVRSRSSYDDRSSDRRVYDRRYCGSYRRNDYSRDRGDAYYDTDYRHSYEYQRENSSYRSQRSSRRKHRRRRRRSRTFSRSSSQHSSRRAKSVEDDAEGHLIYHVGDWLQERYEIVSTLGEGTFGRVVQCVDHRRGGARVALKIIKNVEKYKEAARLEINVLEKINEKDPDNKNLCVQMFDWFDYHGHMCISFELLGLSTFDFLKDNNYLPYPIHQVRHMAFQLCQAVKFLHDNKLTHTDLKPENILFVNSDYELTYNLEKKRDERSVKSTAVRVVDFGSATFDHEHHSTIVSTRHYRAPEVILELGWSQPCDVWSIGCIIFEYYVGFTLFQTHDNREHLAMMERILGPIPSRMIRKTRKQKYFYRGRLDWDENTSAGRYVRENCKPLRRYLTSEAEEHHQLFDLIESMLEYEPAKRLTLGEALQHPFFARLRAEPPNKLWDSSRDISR

[7] = target: Casein kinase I isoform epsilon (Homo sapiens, UniProt P49674)
Chain of Casein kinase I isoform epsilon (P49674 whole entry, canonical isoform): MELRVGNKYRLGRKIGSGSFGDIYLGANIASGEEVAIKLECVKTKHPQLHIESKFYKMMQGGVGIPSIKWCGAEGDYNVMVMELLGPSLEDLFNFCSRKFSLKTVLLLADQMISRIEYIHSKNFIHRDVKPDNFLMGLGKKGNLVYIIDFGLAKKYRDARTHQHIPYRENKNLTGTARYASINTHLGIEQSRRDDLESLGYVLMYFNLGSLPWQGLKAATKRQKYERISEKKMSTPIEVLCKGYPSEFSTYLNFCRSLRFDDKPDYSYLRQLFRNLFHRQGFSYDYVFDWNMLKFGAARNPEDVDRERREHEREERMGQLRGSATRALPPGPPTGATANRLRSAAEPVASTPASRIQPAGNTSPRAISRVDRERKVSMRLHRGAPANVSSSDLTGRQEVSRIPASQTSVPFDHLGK

[8] = target: T2, Dual specificity tyrosine-phosphorylation-regulated kinase 3 (Homo sapiens, UniProt O43781)
T2 sequence (O43781 whole entry): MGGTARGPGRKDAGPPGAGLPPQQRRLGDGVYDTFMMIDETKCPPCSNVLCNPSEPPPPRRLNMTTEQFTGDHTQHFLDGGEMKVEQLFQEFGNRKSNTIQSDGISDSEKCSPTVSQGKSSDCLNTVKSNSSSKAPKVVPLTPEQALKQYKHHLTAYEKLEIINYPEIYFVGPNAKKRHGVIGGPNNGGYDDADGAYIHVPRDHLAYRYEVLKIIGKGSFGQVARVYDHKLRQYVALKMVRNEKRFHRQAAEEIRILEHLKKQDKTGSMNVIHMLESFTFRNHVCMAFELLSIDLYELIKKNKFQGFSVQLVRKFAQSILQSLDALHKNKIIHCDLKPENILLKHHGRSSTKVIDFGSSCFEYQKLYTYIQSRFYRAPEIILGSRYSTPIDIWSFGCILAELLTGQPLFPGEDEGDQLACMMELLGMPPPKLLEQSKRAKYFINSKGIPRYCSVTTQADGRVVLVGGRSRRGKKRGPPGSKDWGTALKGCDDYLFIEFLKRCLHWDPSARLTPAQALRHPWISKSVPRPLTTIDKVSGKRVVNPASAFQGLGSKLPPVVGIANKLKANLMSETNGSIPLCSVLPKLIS

[9] = target: Dual specificity protein kinase CLK3 (Homo sapiens, UniProt P49761); format: cell-based, Sf9
Chain of Dual specificity protein kinase CLK3 (P49761 whole entry): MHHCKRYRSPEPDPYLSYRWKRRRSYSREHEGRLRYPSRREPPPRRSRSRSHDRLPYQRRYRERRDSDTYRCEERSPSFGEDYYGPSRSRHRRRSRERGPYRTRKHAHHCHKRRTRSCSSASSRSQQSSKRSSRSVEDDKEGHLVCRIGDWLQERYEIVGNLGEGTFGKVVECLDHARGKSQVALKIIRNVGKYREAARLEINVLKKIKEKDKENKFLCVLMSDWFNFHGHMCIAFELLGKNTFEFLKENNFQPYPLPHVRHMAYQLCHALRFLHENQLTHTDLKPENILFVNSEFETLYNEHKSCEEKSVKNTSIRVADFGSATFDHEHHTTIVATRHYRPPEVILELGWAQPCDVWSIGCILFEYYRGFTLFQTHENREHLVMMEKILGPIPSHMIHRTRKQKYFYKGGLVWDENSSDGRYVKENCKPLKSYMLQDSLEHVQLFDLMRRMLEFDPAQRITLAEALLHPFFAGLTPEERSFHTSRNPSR

[10] = target: Dual specificity protein kinase CLK1 (Homo sapiens, UniProt P49759); format: cell-based, Sf9
Chain of Dual specificity protein kinase CLK1 (P49759 whole entry): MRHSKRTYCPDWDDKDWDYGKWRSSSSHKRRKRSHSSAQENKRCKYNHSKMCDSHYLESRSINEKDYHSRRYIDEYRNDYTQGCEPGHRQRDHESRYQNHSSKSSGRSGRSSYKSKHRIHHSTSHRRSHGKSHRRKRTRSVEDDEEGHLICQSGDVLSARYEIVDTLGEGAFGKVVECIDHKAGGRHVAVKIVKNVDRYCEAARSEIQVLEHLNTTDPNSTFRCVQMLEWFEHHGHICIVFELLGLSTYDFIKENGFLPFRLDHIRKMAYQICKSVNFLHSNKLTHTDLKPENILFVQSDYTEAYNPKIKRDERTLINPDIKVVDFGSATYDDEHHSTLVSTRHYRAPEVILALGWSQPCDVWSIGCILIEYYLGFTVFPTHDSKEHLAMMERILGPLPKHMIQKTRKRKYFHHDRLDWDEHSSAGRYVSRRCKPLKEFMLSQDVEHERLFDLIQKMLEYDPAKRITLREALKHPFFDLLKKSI

[11] = target: T3, Dual specificity tyrosine-phosphorylation-regulated kinase 2 (Homo sapiens, UniProt Q92630)
T3 sequence (Q92630 whole entry): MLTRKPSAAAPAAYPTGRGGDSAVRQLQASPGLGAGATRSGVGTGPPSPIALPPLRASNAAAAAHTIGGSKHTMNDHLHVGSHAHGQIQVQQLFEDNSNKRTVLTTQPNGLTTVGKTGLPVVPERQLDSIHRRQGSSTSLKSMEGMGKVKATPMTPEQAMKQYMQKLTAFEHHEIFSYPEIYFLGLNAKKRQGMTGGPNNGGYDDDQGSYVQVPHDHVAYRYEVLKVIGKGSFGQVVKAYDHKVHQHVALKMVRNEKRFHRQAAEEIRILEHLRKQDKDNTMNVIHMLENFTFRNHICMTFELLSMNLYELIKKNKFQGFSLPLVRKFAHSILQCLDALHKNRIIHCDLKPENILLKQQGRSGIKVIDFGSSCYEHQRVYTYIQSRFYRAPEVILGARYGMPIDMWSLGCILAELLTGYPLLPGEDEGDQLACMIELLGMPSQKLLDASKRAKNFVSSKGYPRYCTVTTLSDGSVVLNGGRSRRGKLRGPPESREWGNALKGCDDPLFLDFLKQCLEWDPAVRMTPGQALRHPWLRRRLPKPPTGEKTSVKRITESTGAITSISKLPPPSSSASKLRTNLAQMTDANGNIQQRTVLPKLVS

| SMILES | IC50 [1] [µM] | IC50 [2] [µM] | IC50 [3] [µM] | IC50 [4] [µM] | IC50 [5] [µM] | IC50 [6] [µM] | IC50 [7] [µM] | IC50 [8] [µM] | IC50 [9] [µM] | IC50 [10] [µM] | IC50 [11] [µM] |
| --- | --- | --- | --- | --- | --- | --- | --- | --- | --- | --- | --- |
| O=C1NC(NC2CCCCCC2)=N/C1=C\c1ccc2[nH]ccc2c1 | > 10 | > 10 | > 10 | > 10 | > 10 | > 10 | > 10 | > 10 | > 10 | > 10 | > 10 |
| Cn1cnc2cc(/C=C3\N=C(NC4CCCCC4)NC3=O)ccc21 | > 10 | > 10 | > 10 | > 10 | > 10 | > 10 | > 10 | > 10 | > 10 | > 10 | > 10 |
| Cn1cnc2ccc(/C=C3\N=C(NC4CCCCC4)NC3=O)cc21 | 1.11 | 0.008 | 0.093 | > 10 | > 10 | – | – | – | 1.08 | 0.02 | 1.47 |
| Cn1ccc2cc(/C=C3\N=C(NC4CCCCC4)NC3=O)ccc21 | > 10 | > 10 | > 10 | > 10 | > 10 | > 10 | > 10 | > 10 | > 10 | > 10 | > 10 |
| Cn1cnc2cc(/C=C3\N=C(NC4CCCCCC4)NC3=O)ccc21 | > 10 | > 10 | > 10 | > 10 | > 10 | > 10 | > 10 | > 10 | > 10 | > 10 | > 10 |
| CN1CCN(c2ccc(NC3=N/C(=C\c4ccc5c(c4)OCCO5)C(=O)N3)cc2)CC1 | – | 0.019 | 0.007 | 0.12 | – | 0.067 | – | 0.014 | 1.1 | 0.017 | 0.008 |
| COc1ccc(/C=C2\N=C(Nc3ccc(N4CCN(C)CC4)cc3)NC2=O)cc1O | – | 0.012 | 0.014 | 0.2 | – | 0.03 | – | 0.01 | 0.7 | 0.012 | 0.015 |
| O=C1NC(NC23CC4CC(CC(C4)C2)C3)=N/C1=C\c1ccc2[nH]cnc2c1 | 0.218 | 0.002 | 0.002 | > 10 | > 10 | 0.002 | – | – | 7.57 | 0.005 | 0.051 |
| O=C1NC(NC2CCCCCC2)=N/C1=C\c1ccc2[nH]cnc2c1 | 0.865 | 0.008 | 0.098 | > 10 | > 10 | 0.507 | – | – | 1.55 | 0.031 | 2.19 |
| O=C1NC(NC23CC4CC(CC(C4)C2)C3)=N/C1=C\c1ccc2[nH]ncc2c1 | 0.663 | 0.004 | 0.01 | 7.77 | > 10 | 0.014 | – | 0.074 | 1.08 | 0.005 | 0.26 |
| O=C1NC(NC2CCCCC2)=N/C1=C\c1ccc2c(c1)OCO2 | 1.32 | 0.043 | 0.074 | 8.4 | > 10 | 0.955 | > 10 | 2.08 | 4.28 | 0.092 | – |
| O=C1NC(NC23CC4CC(CC(C4)C2)C3)=N/C1=C\c1ccc2ncoc2c1 | – | 0.003 | 0.001 | 0.202 | 0.28 | – | > 10 | 0.038 | 8.53 | 0.008 | 0.062 |
| O=C1NC(NC23CC4CC(CC(C4)C2)C3)=N/C1=C\c1ccc2c(c1)OCO2 | 1.64 | 0.004 | 0.002 | > 10 | > 10 | 0.096 | > 10 | – | > 10 | 0.017 | 0.183 |
| O=C1NC(NC2CCCCC2)=N/C1=C\c1ccc2c(c1)CCO2 | 2.99 | 0.052 | 0.237 | > 10 | > 10 | 1.25 | > 10 | – | 5.38 | 0.104 | 3.39 |
| Cn1ncc2cc(/C=C3\N=C(NC4CCCCCC4)NC3=O)ccc21 | 6.09 | 0.43 | 0.037 | > 10 | > 10 | > 10 | > 10 | – | 0.381 | 1.24 | 1.58 |
| Cn1ncc2cc(/C=C3\N=C(NC4CCCCC4)NC3=O)ccc21 | > 10 | 0.649 | 0.141 | > 10 | > 10 | 7.77 | > 10 | – | 1.71 | 2.51 | 2.54 |
| Cn1cc2cc(/C=C3\N=C(NC45CC6CC(CC(C6)C4)C5)NC3=O)ccc2n1 | 4.3 | – | 0.002 | > 10 | > 10 | – | > 10 | 0.04 | > 10 | 0.004 | – |
| O=C1NC(NC2CCCCCC2)=N/C1=C\c1ccc2[nH]ncc2c1 | – | 0.112 | 0.033 | 3.95 | > 10 | 0.725 | > 10 | – | 0.266 | 0.139 | 1.87 |
| O=C1NC(NC23CC4CC(CC(C4)C2)C3)=N/C1=C\c1ccc2c(c1)CCO2 | 0.626 | 0.066 | 0.05 | > 10 | > 10 | 0.017 | > 10 | – | > 10 | 0.102 | 1.63 |
| Cn1cc2cc(/C=C3\N=C(NC4CCCCC4)NC3=O)ccc2n1 | > 10 | – | 0.57 | > 10 | > 10 | 6.33 | > 10 | 4.13 | 4.53 | 0.951 | 3.7 |
| O=C1NC(NC23CC4(F)CC(F)(CC(F)(C4)C2)C3)=N/C1=C\c1ccc2ncsc2c1 | 0.146 | 0.004 | 0.001 | 0.094 | 0.025 | – | 0.062 | 0.002 | 0.09 | 0.011 | 0.01 |
| Cn1cnc2ccc(/C=C3\N=C(NC4CCCCCC4)NC3=O)cc21 | 1.04 | – | 0.067 | > 10 | 8.7 | 0.102 | > 10 | 0.758 | 0.804 | 0.017 | 1.49 |
